Results taken from PubChem BioAssay AID328 (DTP/NCI, 2004).
“And” between values parts separate entries of the source, which are not always exact repeats. Equal values may be shown once. Toxic doses and inconclusive results are not listed.

Test system: BDF1 mice, P388 leukemia ip, median survival T/C
Assay: NCI In Vivo Anticancer Drug Screen. Data for tumor model P388 Leukemia (intraperitoneal) in B6D2F1 (BDF1) mice
Settings: endpoint: median survival time, higher = longer survival
Summary of the method: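 Antitumour effect was judged in vivo: survival in drug-treated mice, normalised to that of vehicle-dosed controls, gives the reported T/C.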

[1] = dose: 100.0 mg/kg/injection, schedule: Q01DX009 (ip), vehicle: saline with Tween-80
[2] = dose: 100.0 mg/kg/injection, schedule: Q04DX003 (ip), vehicle: saline with Tween-80
[3] = dose: 200.0 mg/kg/injection, schedule: Q01DX009 (ip), vehicle: saline with Tween-80
[4] = dose: 200.0 mg/kg/injection, schedule: Q04DX003 (ip), vehicle: saline with Tween-80
[5] = dose: 400.0 mg/kg/injection, schedule: Q04DX003 (ip), vehicle: saline with Tween-80
[6] = dose: 25.0 mg/kg/injection, schedule: Q01DX009 (ip), vehicle: saline with Tween-80
[7] = dose: 50.0 mg/kg/injection, schedule: Q01DX009 (ip), vehicle: saline with Tween-80
[8] = dose: 50.0 mg/kg/injection, schedule: Q04DX003 (ip), vehicle: saline with Tween-80
[9] = dose: 100.0 mg/kg/injection, schedule: Q01DX009 (ip), vehicle: Klucel (hydroxypropylcellulose) (HPC)
[10] = dose: 100.0 mg/kg/injection, schedule: Q04DX003 (ip), vehicle: Klucel (hydroxypropylcellulose) (HPC)
[11] = dose: 200.0 mg/kg/injection, schedule: Q04DX003 (ip), vehicle: Klucel (hydroxypropylcellulose) (HPC)
[12] = dose: 400.0 mg/kg/injection, schedule: Q01DX009 (ip), vehicle: saline with Tween-80
[13] = dose: 50.0 mg/kg/injection, schedule: Q01DX009 (ip), vehicle: saline
[14] = dose: 100.0 mg/kg/injection, schedule: Q01DX009 (ip), vehicle: saline
[15] = dose: 200.0 mg/kg/injection, schedule: Q01DX009 (ip), vehicle: saline
[16] = dose: 400.0 mg/kg/injection, schedule: Q01DX009 (ip), vehicle: saline
[17] = dose: 6.25 mg/kg/injection, schedule: Q01DX009 (ip), vehicle: saline

O=C(O)C1C(C(=O)O)C2(Cl)C(Cl)=C(Cl)C1(Cl)C2(Cl)Cl.[Cu+2] (configuration not stated)
T/C (dose: 12.5 mg/kg/injection, schedule: Q01DX009 (ip), vehicle: saline sonified): 100 % of control
T/C (dose: 25.0 mg/kg/injection, schedule: Q01DX009 (ip), vehicle: saline sonified): 110 % of control

CCCCCCCNC(C)(C)C(SS)c1ccc(Cl)cc1 (configuration not stated)
T/C (dose: 100.0 mg/kg/injection, schedule: Q04DX003 (sc), vehicle: olive oil, sesame oil, peanut oil): 100 % of control
T/C (dose: 200.0 mg/kg/injection, schedule: Q04DX003 (sc), vehicle: olive oil, sesame oil, peanut oil): 109 % of control
T/C (dose: 400.0 mg/kg/injection, schedule: Q04DX003 (sc), vehicle: olive oil, sesame oil, peanut oil): 100 % of control

CC(=O)[C@@]12OC(C)(C)O[C@@H]1C[C@H]1[C@@H]3C[C@H](C)C4=CC(=O)CC[C@]4(C)[C@H]3CC[C@@]12C
T/C [1]: 104 % of control
T/C [2]: 109 % of control
T/C [3]: 104 % of control
T/C [4]: 95 % of control
T/C [5]: 104 % of control

C(#CCN1CCCC1)CCCN1CCCC1
T/C [6]: 111 % of control
T/C [7]: 92 % of control
T/C [8]: 91 % of control
T/C [1]: 92 % of control
T/C [2]: 91 % of control

CCOC(=O)C(C#N)C1CCCCC1 (configuration not stated)
T/C [9]: 100 % of control
T/C [10]: 104 % of control
T/C (dose: 200.0 mg/kg/injection, schedule: Q01DX009 (ip), vehicle: Klucel (hydroxypropylcellulose) (HPC)): 104 % of control
T/C [11]: 104 % of control
T/C (dose: 400.0 mg/kg/injection, schedule: Q01DX009 (ip), vehicle: Klucel (hydroxypropylcellulose) (HPC)): 109 % of control
T/C (dose: 400.0 mg/kg/injection, schedule: Q04DX003 (ip), vehicle: Klucel (hydroxypropylcellulose) (HPC)): 90 % of control

O=[N+]([O-])c1ccc(N=Nc2c(O)ccc3ccccc23)cc1
T/C [6]: 109 % of control
T/C [7]: 100 % of control
T/C [8]: 111 % of control
T/C [1]: 96 % of control
T/C [2]: 120 % of control
T/C [3]: 105 % of control
T/C [4]: 110 % of control
T/C [12]: 106 % of control
T/C [5]: 105 % of control

O=C(O)CNC(CSCc1ccccc1)CSCc1ccccc1
T/C (dose: 25.0 mg/kg/injection, schedule: Q04DX003 (ip), vehicle: saline with Tween-80): 101 % of control
T/C [13]: 93 % of control
T/C [8]: 106 % of control
T/C [14]: 112 % of control
T/C [2]: 98 % of control
T/C [15]: 111 % of control
T/C [4]: 97 % of control
T/C [16]: 116 % of control
T/C [5]: 97 % of control

CC1NC(=O)C2Cc3ccc(O)c(c3)Oc3cccc(c3)C(O)C(C(=O)N2C)N(C)C(=O)C(C)NC(=O)C(Cc2ccc(O)c(O)c2)N(C)C(=O)C(C)NC1=O (configuration not stated)
T/C (dose: 0.25 mg/kg/injection, schedule: Q01DX009 (ip), vehicle: distilled water + Tween-80): 94 % of control
T/C (dose: 0.5 mg/kg/injection, schedule: Q01DX009 (ip), vehicle: distilled water + Tween-80): 99 % of control
T/C (dose: 1.0 mg/kg/injection, schedule: Q01DX009 (ip), vehicle: distilled water + Tween-80): 94 % of control
T/C (dose: 2.0 mg/kg/injection, schedule: Q01DX009 (ip), vehicle: distilled water + Tween-80): 96 % of control
T/C (dose: 4.0 mg/kg/injection, schedule: Q01DX009 (ip), vehicle: distilled water + Tween-80): 99 % of control
T/C (dose: 8.0 mg/kg/injection, schedule: Q01DX009 (ip), vehicle: distilled water + Tween-80): 99 % of control

COC(OC)C1(O)CC(C(C)COC2CCCCO2)OC(=O)N1 (configuration not stated)
T/C (dose: 50.0 mg/kg/injection, schedule: Q04DX003 (ip), vehicle: Klucel (hydroxypropylcellulose) (HPC)): 102 % of control
T/C [10]: 106 % of control
T/C [11]: 106 % of control

Nc1nc(N)c2cc([N+](=O)[O-])ccc2n1
T/C [7]: 96 % of control
T/C [1]: 101 % of control
T/C [3]: 99 % of control
T/C [12]: 95 % of control

O=C(O)C1CC[N-]CC1.O=C(O)C1CC[N-]CC1.[Cl][Pt+2]([Cl])([Cl])[Cl]
T/C (dose: 3.12 mg/kg/injection, schedule: Q01DX009 (ip), vehicle: saline): 109 % of control
T/C [17]: 90 % of control
T/C (dose: 25.0 mg/kg/injection, schedule: Q01DX009 (ip), vehicle: saline): 94 % of control
T/C [13]: 100 % of control

O=c1[nH]c2c(ccc3cccnc32)c2c1CCC2
T/C [2]: 92 % of control
T/C [5]: 93 % of control

O=c1c(Br)cccc(CN2CCOCC2)c1O
T/C (dose: 12.5 mg/kg/injection, schedule: Q04DX002 (ip), vehicle: saline with Tween-80): 101 % of control
T/C (dose: 25.0 mg/kg/injection, schedule: Q04DX002 (ip), vehicle: saline with Tween-80): 96 % of control
T/C (dose: 50.0 mg/kg/injection, schedule: Q04DX002 (ip), vehicle: saline with Tween-80): 101 % of control and 106 % of control

O=NN1CCCNC1=O
T/C (dose: 66.0 mg/kg/injection, schedule: Q04DX003 (ip), vehicle: saline with Tween-80): 245 % of control
T/C [2]: 116 % of control

CCOP1(=O)N(C)CCN1C
T/C [13]: 95 % of control

C/C(=C\Cl)CN(C)C
T/C (dose: 56.25 mg/kg/injection, schedule: Q01DX001 (ip), vehicle: saline): 100 % of control
T/C (dose: 56.25 mg/kg/injection, schedule: Q04DX003 (ip), vehicle: saline): 95 % of control
T/C (dose: 112.5 mg/kg/injection, schedule: Q01DX001 (ip), vehicle: saline): 86 % of control
T/C (dose: 112.5 mg/kg/injection, schedule: Q04DX003 (ip), vehicle: saline): 90 % of control
T/C (dose: 150.0 mg/kg/injection, schedule: Q01DX009 (ip), vehicle: saline): 105 % of control
T/C (dose: 225.0 mg/kg/injection, schedule: Q01DX001 (ip), vehicle: saline): 100 % of control
T/C (dose: 225.0 mg/kg/injection, schedule: Q01DX009 (ip), vehicle: saline): 105 % of control

S=P(NCCNP(=S)(N1CC1)N1CC1)(N1CC1)N1CC1
T/C (dose: 33.0 mg/kg/injection, schedule: Q04DX003 (ip), vehicle: saline with Tween-80): 121 % of control
T/C [8]: 256 % of control
T/C (dose: 75.0 mg/kg/injection, schedule: Q04DX003 (ip), vehicle: saline with Tween-80): 121 % of control

C=CCOP1(=O)OCC2OC(n3cnc4c(N)ncnc43)C(O)C2O1 (configuration not stated)
T/C [14]: 88 % of control
T/C [15]: 100 % of control
T/C [16]: 88 % of control

COC1=C(OC)C(=O)C2=C(OCCO2)C1=O
T/C (dose: 100.0 mg/kg/injection, schedule: Q01DX001 (ip), vehicle: saline with Tween-80): 104 % of control

O=C1CCCC2C3CC(CN12)C1CC(O)CCN1C3 (configuration not stated)
T/C (dose: 20.0 mg/kg/injection, schedule: Q01DX010 (ip), vehicle: saline): 90 % of control
T/C (dose: 40.0 mg/kg/injection, schedule: Q01DX010 (ip), vehicle: saline): 100 % of control
T/C (dose: 80.0 mg/kg/injection, schedule: Q01DX010 (ip), vehicle: saline): 100 % of control

C=CCSc1nc2ccccc2c(=O)n1-c1cc(OC)c(Cl)cc1OC
T/C (dose: 50.0 mg/kg/injection, schedule: Q01DX009 (ip), vehicle: Klucel (hydroxypropylcellulose) (HPC)): 88 % of control
T/C [9]: 96 % of control

CC(=O)C(C(C)=O)C(Cl)C(C(C)=O)C(C)=O
T/C (dose: 50.0 mg/kg/injection, schedule: Q01DX005 (ip), vehicle: saline with Tween-80): 99 % of control
T/C (dose: 100.0 mg/kg/injection, schedule: Q01DX005 (ip), vehicle: saline with Tween-80): 92 % of control
T/C (dose: 200.0 mg/kg/injection, schedule: Q01DX005 (ip), vehicle: saline with Tween-80): 99 % of control

CCN(CC)CCCCCCNc1cc(OC)c(F)c2c(C)ccnc12
T/C (dose: 3.13 mg/kg/injection, schedule: Q01DX009 (ip), vehicle: saline): 109 % of control
T/C [17]: 107 % of control
T/C (dose: 12.5 mg/kg/injection, schedule: Q01DX009 (ip), vehicle: saline): 116 % of control

COc1ccc2c(c1)CCC1CC(=O)C=C21 (configuration not stated)
T/C (dose: 100.0 mg/kg/injection, schedule: Q01DX001 (ip), vehicle: saline): 105 % of control
T/C (dose: 200.0 mg/kg/injection, schedule: Q01DX001 (ip), vehicle: saline): 90 % of control
T/C (dose: 400.0 mg/kg/injection, schedule: Q01DX001 (ip), vehicle: saline): 100 % of control
